In PubChem BioAssay (NCI):
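Briefly, cells in 96-well plates were exposed to five compound concentrations for 48 h, and endpoints were estimated by linear interpolation. Abbreviation: GI50, concentration required for 50% inhibition of growth. TGI marks complete inhibition of growth.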

Assays:
Assay in all cases: inhibition of tumour cell growth, NCI panel, 48 h
[1] = test system: OVCAR-3 ovarian
[2] = test system: OVCAR-5 ovarian
[3] = test system: UACC-257 melanoma
[4] = test system: COLO 205 colon
[5] = test system: SW-620 colon
[6] = test system: 786-0 renal
[7] = test system: DMS 273 small cell lung
[8] = test system: SNB-19 CNS
[9] = test system: NCI/ADR-RES ovarian
[10] = test system: MDA-N

Compound | TGI [1] | TGI [2] | TGI [3] | TGI [4] | TGI [5] | TGI [6] | TGI [7] | TGI [8] | GI50 [1] | GI50 [2] | GI50 [9] | TGI [9] | GI50 [3] | GI50 [10] | TGI [10] | GI50 [4] | GI50 [5] | GI50 [6] | GI50 [8]
CC(C)=NNC(=S)NC12CC3CC(CC(C3)C1)C2 | > 100 µM | > 100 µM | > 100 µM | > 100 µM | > 100 µM | > 100 µM | > 100 µM | > 100 µM |  |  |  |  |  |  |  |  |  |  | 
C=C1CC2(CCS(=O)(=O)c3ccccc32)OC1=O (stereo unspecified) | 21 µM | 27.3 µM | 32.1 µM | 9.33 µM | 11.4 µM | 15.7 µM | 30.5 µM | 22.8 µM |  |  |  |  |  |  |  |  |  |  | 
COC12OCCN(C)C1=CC(=O)C1(C)N=NCC12 (stereo unspecified) | > 100 µM |  | > 100 µM | > 100 µM | > 100 µM | > 100 µM | > 100 µM |  |  |  |  |  |  |  |  |  |  |  | 
CCOC(=O)CN(c1ccccc1)c1nc(=[N+](C)C)ss1 | 2 µM |  | 96 µM | 15.4 µM | > 100 µM | > 100 µM | 33.8 µM | > 100 µM |  |  |  |  |  |  |  |  |  |  | 
Cc1ccc(C(=O)NCCN(C)C)c2nc3ccccc3cc12 | 6.79 µM | 8.71 µM | 6.01 µM | > 100 µM | 3.52 µM | > 100 µM | 2 µM | 13.6 µM |  |  |  |  |  |  |  |  |  |  | 
COC(=O)C1[C@H](c2ccc3c(c2)OCO3)OC(=O)[C@]1(C(=O)OC)C(=O)c1ccc(OC)c(OC)c1 (stereo partly specified) | > 100 µM | > 100 µM | > 100 µM | > 100 µM | > 100 µM | > 100 µM | 71.6 µM |  |  |  |  |  |  |  |  |  |  |  | 
Cc1ccc(S(=O)(=O)OCCOCCOCCOCCOCCOS(=O)(=O)c2ccc(C)cc2)cc1 | > 100 µM | > 100 µM | 77.8 µM | 34.8 µM | > 100 µM | > 100 µM | > 100 µM | > 100 µM |  |  |  |  |  |  |  |  |  |  | 
N#CCc1nnc(N)o1 | > 100 µM |  | > 100 µM |  | > 100 µM | > 100 µM | > 100 µM | > 100 µM |  |  |  |  |  |  |  |  |  |  | 
CN(C)c1ccccc1[CH2][Ga]([Cl])[CH2]c1ccccc1N(C)C | 3.65 µM | 2.73 µM | 3.05 µM | 2.36 µM | 3.92 µM | 2.8 µM |  | 2.86 µM | 1.4 µM | 1.35 µM | 1.87 µM | 4.22 µM | 1.51 µM | 1.66 µM | 3.08 µM | 1.04 µM | 1.76 µM | 1.38 µM | 1.44 µM
CCC1(c2ccc(N)cc2)CCC(=O)NC1=O (stereo unspecified) | > 3970 µM | > 5000 µM | > 4880 µM | 3070 µM | > 3970 µM | > 5000 µM | > 5000 µM | > 5000 µM |  |  |  | 4820 µM |  |  | > 5000 µM |  |  |  | 
